System: advanced HCC
Assay: Phase I/II trial (Phase II part) of resminostat in combination with sorafenib versus sorafenib alone, first-line, overall survival by baseline platelet count
Format: in vivo, human
Method: A Phase I/II trial investigating resminostat in the indication of hepatocellular cancer (HCC) was conducted. The study was an open-label, multi-center Phase I/II study in patients with advanced HCC previously untreated with systemic chemotherapy (first-line therapy) to determine the MTD and to evaluate safety and efficacy of resminostat in combination with sorafenib. The study was conducted in Japan and Korea. The main eligibility criteria included a performance status of ECOG 0-1, adequate hepatic, renal, cardiac and bone marrow function and a life expectancy of more than 12 weeks.
In the Phase II part, a total of 170 patients were enrolled. Patients were randomly allocated to either the combination group (86 patients) or the monotherapy group (84 patients) at the RD determined from phase I. Randomization was performed with the minimization method using the following 2 factors as stratification factors: study site; and vascular invasion (presence or absence). The trial is registered at www.clinicaltrials.jp (Identifier: JapicCTI-132124) and www.clinicalTrials.gov (NCT02400788). Overall Survival (OS) were evaluated by the Kaplan-Meier method. A point estimate of the hazard ratio was calculated for each subgroup categorized by baseline platelet level as well as the 95% confidence interval of the estimate.
Treatment regimen: Mono group: A cycle was defined as 14 days. Sorafenib (800 mg) was given daily. Combination group: A cycle was defined as 14 days. Sorafenib (800 mg) was given daily. Resminostat (400 mg) was given daily on Days 1 to 5 and suspended on Days 6 to 14.
Blood was collected into a blood collection tubes precharged with EDTA-2K and then immediately inverted 4-5 times to mix. The mixed sample was stored refrigerated for further analysis.
Platelet count analysis was conducted with the Sheath Flow DC Detection method (Sysmex, Kobe, Japan). A method is described in detail in WALTERS J., GARRITY P. (2000): Performance Evaluation of the Sysmex XE-2100 Hematology Analyzer; Laboratory Hematology 6: 83-92. […]

CNC(=O)c1cc(Oc2ccc(NC(=O)Nc3ccc(Cl)c(C(F)(F)F)c3)cc2)ccn1 [sorafenib, 4-[4-[[4-chloro-3-(trifluoromethyl)phenyl]carbamoylamino]phenoxy]-N-methyl-pyridine-2-carboxamide]
overall survival (OS), in words (patients with platelet count of about 150000 platelets/μL or above compared to below about 150000 (FIG. 1)): shorter overall survival | median overall survival (mOS) (patients with platelet count ≥151×10^3/μL (median) at baseline): 5.1 months | median overall survival (mOS) (patients with platelet level below median (<151×10^3/μL)): 17.5 months
